# Test results published in patent US20050026950A1, “Methods of therapeutic treatment using retinoids to achieve consistent bioavailability” (Allergan, Inc., priority 2003, published 2005).
# Assays:
# Assay type in all cases: in vivo, human
# [1] = Two placebo-controlled dose-ranging safety studies of oral tazarotene in nodulocystic acne
# Protocol: Two placebo-controlled dose-ranging studies are conducted to evaluate the safety of oral tazarotene in patients having nodulocystic acne. In the first study, patients receive orally administered tazarotene at daily doses of 0.4 mg to 2.8 mg in 96 (71+25) patients (12 weeks treatment plus 12 weeks post-treatment). In the second study, daily doses of 0.75 mg to 6 mg tazarotene are administered to 181 patients (24 weeks treatment plus 12 weeks post-treatment).
# severe nodulocystic acne = test: Multicenter double-blind placebo-controlled study of oral tazarotene in severe nodulocystic acne; conditions: for patients withdrawing due to adverse events: treatment period
# Excerpt: A multicenter, double-blind, randomized, placebo-controlled parallel-group study is undertaken to determine the efficacy of orally administered tazarotene in treating severe nodulocystic acne.
# In addition, washout periods for other medications for this study are: 1 week for vitamin A supplements >5000 IU; 2 weeks for topical anti-acne medications (e.g., retinoids, azelaic acid, benzoyl peroxide); 2 weeks for topical or systemic antibiotic therapy that may alter the course of acne; and 6 months for systemic retinoids.
# Patients are randomized to receive placebo or oral tazarotene (0.75, 1.5, 3, or 6 mg), in a 1:1:1:1:1 ratio once daily for 24 weeks. After this, the patients are followed without treatment for an additional 12 weeks. Patients discontinuing from the treatment period due to adverse effects or lack of efficacy are eligible for entry into the post-treatment phase.
# In the study, overall acne severity is rated as: none (no inflammatory acne lesions); mild (few to several papules or pustules, no nodulocystic lesions); moderate (several to many papules or pustules, few to several nodulocystic lesions); and severe (numerous or extensive papules or pustules, many, for example, at least about 5 or at least about 10, nodulocystic lesions).
# Treatment success is defined as at least moderate (about 50%) improvement on the following 7-point global response scale: • 0=completely cleared • 1=almost cleared (about 90% improvement) • 2=marked response (about 75% improvement) • 3=moderate response (about 50% improvement) • 4=slight response (about 25% improvement) • 5=condition unchanged • 6=condition worsened
# In this study, facial nodulocystic lesion count includes lesions greater than 5 mm in size. Facial papular/pustular lesion count includes lesions less than or equal to 5 mm in size. Facial non-inflammatory lesion count includes open and closed comedones.
# Sebum output is assessed every 4 weeks at selected centers using the Sebutape® patches, sold by Cuderm Corporation. Urinalysis, chemistry, and hematology values are monitored. Bone formation and resorption assessments (serum bone alkaline phosphatase and serum amino terminal telopeptides, respectively) at selected centers are monitored.
# Bone mineral density of spine and proximal femur at selected centers is monitored. Ligament calcification or osteophyte formation (lateral X-ray of the cervical and thoracic spine, and ankle calcaneous) is monitored. Epiphyseal growth plate closure (internal oblique X-ray of the ankle in patients less than or equal to 21 years old) is monitored.
# [2] = system: moderate to very severe plaque psoriasis; test: Open-label extension study of oral tazarotene in plaque psoriasis non-responders
# [3] = PK and PD interaction studies of oral tazarotene and oral contraceptives in healthy volunteers; conditions: orally, up to 6 mg once daily
# Protocol: It is the objective of this study to determine if there are pharmacokinetic (PK) and pharmacodynamic (PD) interactions between tazarotene and commonly prescribed oral contraceptives (OCs) when coadministered together.
# Three separate clinical studies are conducted to evaluate the PK and PD interactions of oral tazarotene and OCs in healthy volunteers. Two studies evaluate daily doses of norethindrone (NE)/ethinyl estradiol (EE) with daily doses of tazarotene 1.1 mg (N=27) and 6 mg (N=29). The third study assesses the daily doses of norgestimate (NGM)/EE with daily doses of tazarotene 6 mg (N=26). OCs are administered for three consecutive menstrual cycles. Daily doses of tazarotene are started during the 2nd cycle and continued through the end of the studies. PK parameters for EE, NE, and NGM (AUC0-24 and Cmax) are determined before tazarotene dosing and after tazarotene dosing on day 6 of the 2nd and 3rd cycles. Serum concentrations of luteinizing hormone (LH) and follicle-stimulating hormone (FSH)-markers of contraceptive efficacy are also evaluated before tazarotene dosing and after tazarotene dosing on days 2, 4, and 6 of the 2nd and 3rd cycles. Serum progesterone levels are assessed on days 18 and 20 of the 2nd and 3rd cycles. […]
# [4] = 0.75 to 6 mg once daily, 24 weeks
# [5] = 4.5 mg once daily, 12-week extension
# [6] = 4.5 mg once daily, 12-week extension, across both groups
smiles,measurement,setting,value
CCOC(=O)c1ccc(C#Cc2ccc3c(c2)C(C)(C)CCS3)nc1 [tazarotene],"changes in urinalysis, chemistry, or hematology measures (liver function tests, triglycerides, total and HDL cholesterol)",[1]; 0.4 mg to 6 mg daily,no consistent dose-related clinically significant changes
same,"ligament calcification, osteophyte formation, serum bone alkaline phosphatase, amino terminal telopeptides, bone density",[1]; 0.4 mg to 6 mg daily,not associated with any clinically significant
same,incidence of arthralgia,"[1]; 2.8 mg, n=11, treatment period",9%
same,incidence of asthenia,"[1]; 2.8 mg, n=11, treatment period",0%
same,incidence of cheilitis,"[1]; 2.8 mg, n=11, treatment period",64%
same,incidence of dry skin,"[1]; 2.8 mg, n=11, treatment period",18%
same,incidence of headache,"[1]; 2.8 mg, n=11, treatment period",9%
same,incidence of joint disorder,"[1]; 2.8 mg, n=11, treatment period",27%
same,incidence of myalgia,"[1]; 2.8 mg, n=11, treatment period",0%
same,severe dry skin,[1]; 3 mg and 6 mg groups,No patient has severe dry skin
same,"Emotional lability, patients",[1]; 3 mg group,3%
same,mild cheilitis,[1]; 3 mg group,25 patients
same,mild dry skin,[1]; 3 mg group,11 patients
same,moderate cheilitis,[1]; 3 mg group,3 patients
same,moderate dry skin,[1]; 3 mg group,2 patient
same,severe cheilitis,[1]; 3 mg group,1 patient
same,"Depression, patients","[1]; 3 mg group (2 mild, 1 severe)",8%
same,incidence of arthralgia,"[1]; 3 mg, n=37, treatment period",8%
same,incidence of asthenia,"[1]; 3 mg, n=37, treatment period",19%
same,incidence of cheilitis,"[1]; 3 mg, n=37, treatment period",78%
same,incidence of dry skin,"[1]; 3 mg, n=37, treatment period",35%
same,incidence of headache,"[1]; 3 mg, n=37, treatment period",19%
same,incidence of joint disorder,"[1]; 3 mg, n=37, treatment period",14%
same,incidence of myalgia,"[1]; 3 mg, n=37, treatment period",16%
same,"Depression, patients",[1]; 6 mg group,none
same,"Emotional lability, patients",[1]; 6 mg group,14%
same,mild cheilitis,[1]; 6 mg group,27 patients
same,mild dry skin,[1]; 6 mg group,17 patients
same,moderate cheilitis,[1]; 6 mg group,6 patients
same,moderate dry skin,[1]; 6 mg group,1 patient
same,severe cheilitis,[1]; 6 mg group,1 patient
same,incidence of arthralgia,"[1]; 6 mg, n=36, treatment period",28%
same,incidence of asthenia,"[1]; 6 mg, n=36, treatment period",19%
same,incidence of cheilitis,"[1]; 6 mg, n=36, treatment period",94%
same,incidence of dry skin,"[1]; 6 mg, n=36, treatment period",50%
same,incidence of headache,"[1]; 6 mg, n=36, treatment period",36%
same,incidence of joint disorder,"[1]; 6 mg, n=36, treatment period",19%
same,incidence of myalgia,"[1]; 6 mg, n=36, treatment period",25%
same,patients withdrawing from either study due to adverse events,"[1]; both studies, 7/277 patients including placebo",2.5%
same,patients withdrawing due to adverse events,severe nodulocystic acne; 0.75 mg group (2/35),6%
same,patients withdrawing due to adverse events,severe nodulocystic acne; 1.5 mg group (0/37),0%
same,incidence of treatment success vs placebo,"severe nodulocystic acne; 3 mg and 6 mg, week 24 and post-treatment phase, p≦0.05",significantly higher incidence of treatment success
same,patients withdrawing due to adverse events,severe nodulocystic acne; 3 mg group (2/37),5%
same,patients withdrawing due to adverse events,severe nodulocystic acne; 6 mg group (1/36),3%
same,reduction of overall acne severity vs placebo,"severe nodulocystic acne; 6 mg, week 16 until end of post-treatment phase, p≦0.01",significantly more than placebo
same,"bone formation and resorption (serum bone alkaline phosphatase, amino terminal telopeptides)",severe nodulocystic acne; [4],do not appear to be altered
same,"changes in urinalysis, chemistry, or hematology measures (liver function, triglycerides, total and HDL cholesterol)",severe nodulocystic acne; [4],None of the treatment groups show any consistent clinically significant changes
same,"ligament calcification, osteophyte formation, or changes in bone density",severe nodulocystic acne; [4],None of the treatment groups show any clinically significant
same,percentage of patients with at least a 90% reduction in facial nodulocystic lesion count vs placebo,"severe nodulocystic acne; 1.5, 3, and 6 mg groups, week 24",significantly greater
same,sebum secretion (Sebutape method),"severe nodulocystic acne; oral, 0.75 to 6 mg, vs placebo",does not substantially reduce sebum secretion relative to placebo
same,patients achieving treatment success (≧50% global improvement),"severe nodulocystic acne; three highest doses, by week 12",more than 70%
same,patients achieving treatment success (≧50% global improvement),"severe nodulocystic acne; two highest doses, by week 24",more than 86%
same,changes in liver function test values or cholesterol levels,[2]; [5],no clinically significant changes
same,serious adverse events related to study treatment,[2]; [5],no serious adverse events considered related to the study treatment
same,incidence of arthralgia,[2]; [6],20%
same,incidence of asthenia,[2]; [6],6%
same,incidence of back pain,[2]; [6],11%
same,incidence of cheilitis,[2]; [6],70%
same,incidence of dry skin,[2]; [6],25%
same,incidence of headache,[2]; [6],11%
same,incidence of hypertriglyceridemia,[2]; [6],6%
same,incidence of infection,[2]; [6],10%
same,incidence of myalgia,[2]; [6],15%
same,"Clinical success (a 2-grade reduction in OLA), patients",[2]; end of the 12-week post-treatment period,16%
same,effect on the PK or efficacy of NE/EE and NGM/EE oral contraceptives,[3],does not affect
